According to US11331290B2, “Niclosamide for the treatment of cancer metastasis” (Max-Delbrück-Centrum für Molekulare Medizin in der …, priority 2011, dated 2022):

Tested on: HCT116-vector cells and HCT116-S100A4 cells
Experiment: Anchorage-dependent cell proliferation (MTT)
Assay type: cell-based, human
Details: 1 μM daily
Description: For cell proliferation determination of HCT116, SW620, LS174T, SW480 and DLD-1 cells 2×10^3 cells were seeded in 96-well-plates (for each day one plate) and were given 24 hours to attach to the bottom of the well. Cells were from then on treated daily with 1 μM niclosamide or the respective amount of DMSO. For determination of viable cells 3-(4,5-dimethyl-2-thiazol)-2,5-diphenyl-2H-tetrazolium bromide (MTT; Sigma) was added to a final concentration of 0.5 mg per mL and incubated for 3 hours at 37° C. and 5% CO2 in a humidified incubator. […] Crystallized MTT was resolved by 10% SDS in 10 mM HCl and the absorption was measured at 560 nm. […] The average MTT metabolisation was determined of two independent experiments each performed in triplicate.
(A) Cell migration of HCT116-vector and HCT116-S100A4 cells exposed to niclosamide treatment. Cells were treated with 1 μM niclosamide for 24 hours and migration rates were measured with Boyden chamber assay. […] Cells were treated with 1 μM niclosamide for 24 hours and cell invasion was determined by Boyden chamber assay. (C) Directed migration of HCT116-vector and HCT116-S100A4 cells exposed to niclosamide treatment analyzed by wound healing assay. […] Cells were treated daily with 1 μM niclosamide and cell viability was determined with MTT assay. […] (F) Quantification of colonies formed. […]

With O=C(Nc1ccc([N+](=O)[O-])cc1Cl)c1cc(Cl)ccc1O [niclosamide, 2′,5-dichloro-4′-nitrosalicylanilide] the anchorage-dependent cell proliferation was “reduction of cell proliferation in both cell lines”.
